Data on 4 molecules can be found in ChEMBL document CHEMBL5113416, “Glycosylation increases the anti-QS as well as anti-biofilm and anti-adhesion ability of the cyclo (L-Trp-L-Ser) against Pseudomonas aeruginosa” (Eur J Med Chem, 2022).

Calls of active or inactive are those of the source. No cut-off for these calls is given here.

Data set [1] has as its system Pseudomonas aeruginosa. As to the kind of experiment: Antibiofilm activity against Pseudomonas aeruginosa PAO1 assessed as inhibition of biofilm formation at 10 to 200 uM incubated for 24 hrs in presence of CaCl2 by crystal violet staining based microscopic analysis. Type of data set: functional, organism-based. Conditions: dose 10-200 µM.
Data set [2] deals with Elastase (Pseudomonas aeruginosa (strain ATCC 15692 / PAO1 / 1C / PRS 101 / LMG12228)) (UniProt P14756). As to the kind of experiment: Inhibition of Pseudomonas aeruginosa PAO1 elastase activity at 10 to 200 uM for 18 hrs by elastin Congo red based microplate reader analysis. The conditions noted are these: dose 10-200 µM.
Sequence of Elastase (Pseudomonas aeruginosa (strain ATCC 15692 / PAO1 / 1C / PRS 101 / LMG12228)) (P14756 198-498 limits assumed): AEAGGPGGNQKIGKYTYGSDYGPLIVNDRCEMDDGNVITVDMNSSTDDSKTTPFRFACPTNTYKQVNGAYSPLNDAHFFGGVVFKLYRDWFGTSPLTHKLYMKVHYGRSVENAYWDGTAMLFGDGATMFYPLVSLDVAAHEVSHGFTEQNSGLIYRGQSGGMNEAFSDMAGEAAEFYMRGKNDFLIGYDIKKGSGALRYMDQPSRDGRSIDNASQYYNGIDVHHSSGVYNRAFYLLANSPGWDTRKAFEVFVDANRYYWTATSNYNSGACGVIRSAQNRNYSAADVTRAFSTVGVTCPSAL
Data set [3] is described as follows: Inhibition of quorum sensing system in Pseudomonas aeruginosa PAO1 assessed as decrease of pyocyanin production at 10 to 200 uM for 18 hrs by microplate reader analysis. Conditions: dose 10-200 µM.
The nature of data set [4]: Toxicity in sheep red blood cells assessed as induction of hemolysis measured after 4 hr. The class given is cell-based, Ovis aries, Erythrocyte.
Data set [5] relates to Pseudomonas aeruginosa. As to the kind of experiment: Antibiofilm activity against Pseudomonas aeruginosa PAO1 assessed as disruption of preformed biofilm at 200 uM incubated for 4 hrs by Confocal microscopic analysis. Type of data set: functional, organism-based.
Data set [6] relates to Pseudomonas aeruginosa. As to the kind of experiment: Antibiofilm activity against Pseudomonas aeruginosa PAO1 assessed as inhibition of biofilm formation at 200 uM incubated for 24 hrs in presence of CaCl2 by crystal violet staining based microscopic analysis. The class given is functional.
For data set [7], the system named is Pseudomonas aeruginosa. As to the kind of experiment: Synergistic bactericidal activity against Pseudomonas aeruginosa PAO1 assessed as reduction in bacterial density at 200 uM incubated for 6 hrs in presence of azithromycin by colony-counting method. The class given is functional. Set-up: scale not given: the % may be the effect or the level left.
Data set [8] addresses T1, PA-I galactophilic lectin (Pseudomonas aeruginosa (strain ATCC 15692 / PAO1 / 1C / PRS 101 / LMG12228), UniProt Q05097).
T1 sequence (Q05097 whole entry): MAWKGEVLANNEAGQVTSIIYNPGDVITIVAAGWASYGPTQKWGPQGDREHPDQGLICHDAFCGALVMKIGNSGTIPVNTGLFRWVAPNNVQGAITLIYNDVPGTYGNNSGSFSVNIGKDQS
Put plainly: Binding affinity to Pseudomonas aeruginosa PAO1 LecA assessed as dissociation constant by ITC analysis.

Data set [9] relates to Pseudomonas aeruginosa. Put plainly: Synergistic bactericidal activity against Pseudomonas aeruginosa PAO1 assessed as reduction in bacterial density at 200 uM incubated for 1 hrs in presence of azithromycin by colony-counting method. Type of data set: functional. Also noted: scale not given: the % may be the effect or the level left.
The test system of data set [10] is Pseudomonas aeruginosa. Put plainly: Antibiofilm activity against Pseudomonas aeruginosa PAO1 assessed as inhibition of biofilm formation incubated for 24 hrs in presence of CaCl2 by crystal violet staining based microscopic analysis. The class given is functional, organism-based. Conditions: PAO1, 24 h.
The next data set relates to A549. Put plainly: Cytotoxicity against human A549 cells assessed as reduction in cell viability at 2 mM incubated for 24 hrs by MTT assay. The class given is toxicity, cell-based. Conditions: a549, 24 h, 2000 µM. For orientation: Tetrazolium dyes change colour on reduction, which living cells bring about.
In data set [11] the test system is Pseudomonas aeruginosa. As to the kind of experiment: Antibiofilm activity against Pseudomonas aeruginosa PAO1 assessed as disruption of preformed biofilm at 200 uM incubated for 4 hrs by crystal violet staining based microscopic analysis. Type of data set: functional.
Data set [12] can be described thus: Inhibition of quorum sensing system in Pseudomonas aeruginosa PAO1 assessed as downregulation of […] gene expression at 200 uM by qRT-PCR analysis.
The test system of data set [13] is Pseudomonas aeruginosa. Put plainly: Antibiofilm activity against Pseudomonas aeruginosa PAO1 assessed as inhibition of swarming motility at 200 uM for 18 hrs by motility assay. Type of data set: functional, organism-based.
The subject of data set [14] is Pseudomonas aeruginosa. As to the kind of experiment: Anti-adhesion activity against Pseudomonas aeruginosa PAO1 assessed as inhibition of adhesion ability incubated for 3 hrs using glass as substrate by colony-counting method. Type of data set: functional, organism-based. Conditions: PAO1, 3 h.
A short description of data set [15]: Toxicity in sheep red blood cells assessed as induction of hemolysis at 200 uM for 4 hr. Conditions: erythrocyte. The class given is cell-based, Ovis aries.
A short description of data set [16]: Inhibition of quorum sensing system in Pseudomonas aeruginosa PAO1 assessed as downregulation of rhlR gene expression at 200 uM by qRT-PCR analysis.
Data set [17] relates to Pseudomonas aeruginosa. As to the kind of experiment: Antibiofilm activity against Pseudomonas aeruginosa PAO1 assessed as disruption of preformed biofilm incubated for 4 hrs by crystal violet staining based microscopic analysis. The class given is functional, organism-based. The conditions noted are these: PAO1, 4 h.
Data set [18] has as its system Pseudomonas aeruginosa. Put plainly: Anti-adhesion activity against Pseudomonas aeruginosa PAO1 assessed as inhibition of adhesion ability at 200 uM incubated for 3 hrs using glass as substrate by SEM analysis. Type of data set: functional, organism-based.
Data set [19] has as its system Pseudomonas aeruginosa. Put plainly: Antibiofilm activity against Pseudomonas aeruginosa PAO1 assessed as disruption of preformed biofilm at 200 uM incubated for 4 hrs by SEM analysis. The class given is functional, organism-based.
Data set [20] can be described thus: Stability of the compound in rabbit plasma assessed as retention rate at 200 to 1000 uM and measured upto 24 hrs by HPLC analysis. The class given is ADME, cell-free, Oryctolagus cuniculus. The conditions noted are these: dose 200-1000 µM, read-out: Stability.
In data set [21] the test system is Pseudomonas aeruginosa. Put plainly: Anti-adhesion activity against Pseudomonas aeruginosa PAO1 to human A549 cells assessed as decrease in cell adhesion ability at 200 uM incubated for 3 hrs by DAPI staining based confocal microscopy. Type of data set: functional. Also noted: scale not given: the % may be the effect or the level left.
For data set [22], the system named is Pseudomonas aeruginosa. As to the kind of experiment: Anti-adhesion activity against Pseudomonas aeruginosa PAO1 assessed as inhibition of adhesion ability at 200 uM incubated for 3 hrs using glass as substrate by colony-counting method. Type of data set: functional.
Data set [23] has as its system Pseudomonas aeruginosa. As to the kind of experiment: Bactericidal activity against Pseudomonas aeruginosa PAO1 assessed as reduction in bacterial density at 150 ug/ml incubated for 6 hrs by colony-counting method. Type of data set: functional. Set-up: scale not given: the % may be the effect or the level left. The conditions noted are these: dose 150 µg/ml.
The subject of data set [24] is Pseudomonas aeruginosa. Put plainly: Anti-adhesion activity against Pseudomonas aeruginosa PAO1 assessed as inhibition of adhesion ability at 50 ug/ml incubated for 3 hrs using glass as substrate by colony-counting method. The class given is functional.
Data set [25] relates to Pseudomonas aeruginosa. Put plainly: Anti-adhesion activity against Pseudomonas aeruginosa PAO1 assessed as inhibition of adhesion ability at 50 ug/ml incubated for 3 hrs using glass as substrate by SEM analysis. Conditions: dose 50.0 µg/ml. The class given is functional, organism-based.
Data set [26] has as its system Pseudomonas aeruginosa. Put plainly: Bactericidal activity against Pseudomonas aeruginosa PAO1 assessed as reduction in bacterial density at 150 ug/ml incubated for 1 hrs by colony-counting method. The class given is functional. Set-up: scale not given: the % may be the effect or the level left. The conditions noted are these: dose 150 µg/ml.
Data set [27] is described as follows: Inhibition of quorum sensing system in Pseudomonas aeruginosa PAO1 assessed as decrease of pyocyanin production at 200 uM for 18 hrs by microplate reader analysis.
Data set [28] in a line: Inhibition of quorum sensing system in Pseudomonas aeruginosa PAO1 assessed as downregulation of lasR gene expression at 200 uM by qRT-PCR analysis.

As usually defined, the inhibition is the drop in the measured response relative to a control, in per cent. Broadly, the HC50 is the concentration giving 50% haemolysis. In general, Kd refers to a measure of binding affinity in units of concentration. One may read the IC50 as the concentration that gives 50% inhibition. The term EC50 denotes the midpoint of the concentration-response curve. On to `O=C1N[C@@H](Cc2c[nH]c3ccccc23)C(=O)N[C@H]1CO[C@@H]1O[C@H](CO)[C@H](O)[C@H](O)[C@H]1O`, for which the inhibition entry (in the data set on Pseudomonas aeruginosa [1]; in [2]; in data set [3]; in data set [12]; in [16]; in the data set with Pseudomonas aeruginosa [18]) was “Active” each time. The 50% haemolytic concentration (HC50) at 4 h in [4] is over 10 mM. Moreover, the outcome with Pseudomonas aeruginosa [5], in the data set on Pseudomonas aeruginosa [13] and in the data set with Pseudomonas aeruginosa [19] was Active. The inhibition at 200 µM in the data set with Pseudomonas aeruginosa [6] was 69%; with Pseudomonas aeruginosa [22], 50%. Moreover, the Activity in the data set with Pseudomonas aeruginosa [7] is listed as 7%; with Pseudomonas aeruginosa [9], 81%; in the data set with A549, 90%; in the data set on Pseudomonas aeruginosa [11], 54%; in data set [15], “Non-Toxic”; in the data set on Pseudomonas aeruginosa [21] it was 29%. The Kd in data set [8] stood at 91.3 µM. The IC50 is 100 µM in the data set on Pseudomonas aeruginosa [10] and 200 µM with Pseudomonas aeruginosa [14]. The EC50 in the data set with Pseudomonas aeruginosa [17] was determined as 80 µM. Moreover, the remaining at 24 h, up to 1000 µM in data set [20] is over 70%.
Consider `CC[C@H]1OC(=O)[C@H](C)[C@@H](O[C@H]2C[C@@](C)(OC)[C@@H](O)[C@H](C)O2)[C@H](C)[C@@H](O[C@@H]2O[C@H](C)C[C@H](N(C)C)[C@H]2O)[C@](C)(O)C[C@@H](C)CN(C)[C@H](C)[C@@H](O)[C@]1(C)O` [AZITHROMYCIN], for which the Activity with Pseudomonas aeruginosa [23] is reported as 27%; in the data set on Pseudomonas aeruginosa [26], 99%. The inhibition at 50 µg/mL with Pseudomonas aeruginosa [24] stood at 48%. In the data set on Pseudomonas aeruginosa [25], the inhibition result was “Active”.
As to `O=C1N[C@@H](Cc2c[nH]c3ccccc23)C(=O)N[C@H]1CO[C@@H]1O[C@H](CO)[C@@H](O)[C@H](O)[C@H]1O`, the inhibition result in data set [2], in [3], in data set [12] and in data set [16] was “Active” throughout. The concentration for 50% haemolysis (HC50) at 4 h in data set [4] was over 10 mM. In addition, the result in the data set with Pseudomonas aeruginosa [5], in the data set with Pseudomonas aeruginosa [13], with Pseudomonas aeruginosa [19] and in the data set on Pseudomonas aeruginosa [21] was Active. Further, the inhibition at 200 µM in the data set with Pseudomonas aeruginosa [6] was found to be 44%; in the data set with Pseudomonas aeruginosa [22], 32%. Also, the Activity with Pseudomonas aeruginosa [7] is 5%; with Pseudomonas aeruginosa [9], 73%; with A549, 90%; in the data set with Pseudomonas aeruginosa [11] it was 47%; in [15] it was “Non-Toxic”. Also, the figures for the IC50 in the data set with Pseudomonas aeruginosa [10] and in the data set on Pseudomonas aeruginosa [14] were 250 µM and 500 µM, respectively. The EC50 in the data set on Pseudomonas aeruginosa [17] was determined as 300 µM. Also, in data set [20], the remaining at 24 h, up to 1000 µM was over 70%.
Turning to `O=C1N[C@@H](Cc2c[nH]c3ccccc23)C(=O)N[C@H]1CO`, the inhibition was determined as 35% in data set [27] and 20% in data set [28]. The inhibition result in data set [3] is “Active”. For the same molecule, the IC50 with Pseudomonas aeruginosa [10] turned out to be 600 µM; in the data set on Pseudomonas aeruginosa [14] it was 800 µM. Besides, in the data set with Pseudomonas aeruginosa [17], the EC50 is 800 µM. In addition, the result in the data set with Pseudomonas aeruginosa [21] was Active. Also, the inhibition at 200 µM with Pseudomonas aeruginosa [22] stood at 16%.
